Where two headings read alike, the source gives them in different places.
Assays:
[1] = in the dry emulsions of MCT or sesame oil at a storage temperature of 25° C. or below
Method: At each time point including the time 0, a vial was removed from each stability temperature chamber and reconstituted with 0.2 ml deionized water to reform the emulsion.
Along with the dry emulsion samples, the liquid emulsion samples (pre-lyophilization) were also included in this study. The liquid emulsions were stored at −20° C.

[2] = no lecithin, 24 hours at 25° C.
Method: The mixtures were agitated for 24 hours at 25° C., and were then filtered through a 0.2 micron filter.

[3] = Stability of paclitaxel in solutions containing oil and soy lecithin (HPLC purity); assay type: physicochemical
Method: The ethanol solution was mixed with the selected oil. […] The resulting oil solutions were sealed in glass vials and stored at 40° C. or at 60° C.

[4] = Paclitaxel emulsion stability study #2: effect of pH, dry vs liquid emulsions at 40° C.; assay type: physicochemical; settings: pH 4.0 to 8.9, stored at 40° C., HPLC
Method: These tests were conducted to select optimal pH's for a dry paclitaxel emulsion.
The fine emulsion was divided into 5 portions. The pH of each portion was adjusted to pH 4.0, 5.6, 6.6, 7.8 or 8.9 using 0.2 N HCl or 0.2 N NaOH solution. Average droplet size of each pH adjusted emulsion was determined using LLS.
The stability evaluation included both dry and liquid emulsions (pre-lyophilization) at each pH. These emulsions were stored sealed in glass vials at 40° C.

- Time paclitaxel is chemically stable [1]: at least 28 days
- Solubility at 25° C. ([2]; MCT oil (Miglyol 812N)): 40 mg/g of oil
- Solubility at 25° C. ([2]; Sesame oil): 5 mg/g of oil
- Stability of paclitaxel in dry versus liquid emulsions [4]: more stable than in the liquid emulsions
Structure (SMILES): CC(=O)O[C@H]1C(=O)[C@@]2(C)[C@H]([C@H](OC(=O)c3ccccc3)[C@]3(O)C[C@H](OC(=O)[C@H](O)[C@@H](NC(=O)c4ccccc4)c4ccccc4)C(C)=C1C3(C)C)[C@]1(OC(C)=O)CO[C@@H]1C[C@@H]2O [paclitaxel]
- Purity (% paclitaxel peak area over total peak area) Day 0 ([3]; Corn oil with soy lecithin): 98.7 % paclitaxel peak area over total peak area
- Purity (% paclitaxel peak area over total peak area) Day 0 ([3]; Cottonseed oil with soy lecithin): 98.8 % paclitaxel peak area over total peak area
- Purity (% paclitaxel peak area over total peak area) Day 0 ([3]; Ethyl oleate with soy lecithin): 97.0 % paclitaxel peak area over total peak area
- Purity (% paclitaxel peak area over total peak area) Day 0 ([3]; Miglyol 812N with soy lecithin): 99.3 % paclitaxel peak area over total peak area
- Purity (% paclitaxel peak area over total peak area) Day 0 ([3]; Safflower oil with soy lecithin): 98.0 % paclitaxel peak area over total peak area
- Purity (% paclitaxel peak area over total peak area) Day 0 ([3]; Sesame oil + oleic acid, with soy lecithin): 98.5 % paclitaxel peak area over total peak area
- Purity (% paclitaxel peak area over total peak area) Day 0 ([3]; Sesame oil + vit E, with soy lecithin): 99.0 % paclitaxel peak area over total peak area
- Purity (% paclitaxel peak area over total peak area) Day 0 ([3]; Sesame oil + water, with soy lecithin): 99.1 % paclitaxel peak area over total peak area
- Purity (% paclitaxel peak area over total peak area) Day 0 ([3]; Sesame oil with soy lecithin): 99.0 % paclitaxel peak area over total peak area
- Purity (% paclitaxel peak area over total peak area) Day 0 ([3]; Sesame oil without soy lecithin): 99.2 % paclitaxel peak area over total peak area
- Purity (% paclitaxel peak area over total peak area) Day 0 ([3]; Soybean oil with soy lecithin): 99.4 % paclitaxel peak area over total peak area
- Purity (% paclitaxel peak area over total peak area) Day 0 ([3]; Vitamin E with soy lecithin): 96.3 % paclitaxel peak area over total peak area

— patent US20030099674A1 (priority 2001, published 2003)
